{"source": "paper PMC3898838", "about": "“Design, Synthesis, and Biological Evaluation of an Allosteric Inhibitor of HSET that Targets Cancer Cells with Supernumerary Centrosomes” (Chemistry & Biology, 2013)", "key": {"[1]": {"tested_on": "MDA-MB-231 cells", "experiment": "Immunofluorescence, mitotic spindle morphology", "assay_type": "cell-based, human", "details": "MDA-MB-231, 100 μM and 200 μM, 2.5 hr", "description": "(§1) […] Prewarmed 4% paraformaldehyde in PBS was then added to each well to fix the cells before washing with PBS. Permeabilization and blocking was performed by incubating the slides with 1% BSA, 0.3% Triton X-100, 5% goat serum in PBS (PBS/B/0.3%T+5%GS) for 1 hr while shaking them at room temperature (RT). The slides were incubated with primary antibody solutions (mouse monoclonal anti-α-Tubulin [catalog number T9026; Sigma-Aldrich] and rabbit anti-CDK5RAP2 [catalog number A300-554A; Bethyl Laboratories]) at 4°C for 16 hr. The slides were washed four times with PBS/B/0.3%T+5%GS and then incubated with secondary antibody solutions (anti-rabbit IgG Alexa Fluor 488 [catalog number A21206] and anti-mouse IgG Alexa Fluor 647 [catalog number A20990]; Invitrogen) and DAPI (catalog number D3571; Invitrogen) in deionized water (300 nM) in the dark at RT for 1 hr. After four washes with PBS/B/0.3%T+5%GS, the solution was replaced with PBS and the slides were stored at 4°C until imaging was performed. Images were gathered with the use of an ICys Research Imaging Cytometer (CompuCyte) or a tandem confocal microscope (Leica).\n(§2) (1 picture or pasted object on this page, not shown here)"}, "[2]": {"tested_on": "BT549 cells", "experiment": "Immunofluorescence, mitotic spindle morphology", "assay_type": "cell-based, human", "details": "BT549, 100 μM and 200 μM, 2.5 hr", "description": "as §1, §2"}, "[3]": {"tested_on": "MCF-7 cells", "experiment": "Immunofluorescence, mitotic spindle morphology", "assay_type": "cell-based, human", "details": "MCF-7, 100 μM and 200 μM, 2.5 hr", "description": "as §1, §2"}, "[4]": {"tested_on": "N1E-115 cells", "experiment": "Time-lapse microscopy, mitotic fate", "assay_type": "cell-based, mouse", "description": "Therefore, we interrogated cell division in N1E-115 cells using time-lapse imaging for further validation of target engagement. Treatment with 200 μM CW069 did indeed induce multipolar anaphase formation in N1E-115 cells (48%; Figure 5A) compared with the DMSO control (0%; Figure 5A). […] This is consistent with a previous report that catastrophic aneuploidy associated with multipolar divisions prompted cell death ([Kwon et al., 2008]). In order to corroborate selective inhibition of HSET by CW069 in cells, we treated HSET siRNA-depleted cells with 200 μM CW069 and compared them with DMSO/control siRNA-, DMSO/HSET siRNA-, and CW069/control siRNA-treated cells (Figure 5D).\n(§3) Cells were synchronized in G2-M by incubation at 37°C and 5% CO2 for 24 hr with 9 μM of the CDK1 inhibitor RO-3306 (Merck). Cells were released by removal of the RO-3306 and four washings of 10 min each, at 37°C, with prewarmed culture media + 10% FBS. N1E-115 cells were transfected with siRNA (Supplemental Experimental Procedures) and imaged from 6 hr after transfection. Some RO-3306-synchronized cells were released with 200 μM CW069, 100 μM monastrol, or 0.2% DMSO, and imaging started immediately or 1 hr after treatment. Imaging was carried out for 24 hr, or for 4 hr in the case of the CW069/monastrol cotreatment. Imaging was conducted every 5 min in a humidified chamber with 37°C and 5% CO2, using a Nikon Eclipse TE2000-E microscope, and analyzed with NIS-Elements software (Nikon, Tokyo, Japan). The morphology of cells in mitosis and the mitotic fate (bipolar division, multipolar division, or cell death) were analyzed."}, "[5]": {"tested_on": "N1E-115 cells", "experiment": "IncuCyte live-cell imaging, proliferation", "assay_type": "cell-based, mouse", "details": "N1E-115, 100-350 μM; p = 0.0192 control vs 150 μM", "text": "(§4) In order to ascertain whether CW069 could more broadly reduce proliferation in a range of cancer cells, we carried out IncuCyte live-cell imaging on N1E-115 cells and BT549 (with lower but marked centrosome amplification) and MCF-7 (with normal centrosome numbers) breast cancer cells. Cells were imaged for 21 hr prior to treatment with DMSO control (0.2%) and various concentrations of CW069, and then imaged for a further 36 hr. […] It could also be due to another direct or indirect effect, and the role of HSET in the survival of cancer cells with normal centrosome numbers remains to be fully understood.\n(§5) NHDF cells were obtained from PromoCell, and the N1E-115 and HeLa cells were obtained from ATCC/LGC Standards. The BT549, MCF-7 and MDA-MB-231 cells were kind gifts from the Caldas laboratory (CRUK Cambridge Institute) and were originally obtained from ATCC/LGC. All human cells were verified by STR genotyping and all tested negative for mycoplasma. […] Fluorescence was quantified using an Infinite 200 PRO plate-reader (Tecan) at a wavelength of 545 nm. […]\n(§6) For live-cell imaging, plated cells were imaged prior to treatment for 24 hr and then after treatment for 72 hr. […] Data were analyzed as the percentage of original cell confluency in order to directly compare each compound treatment with the DMSO control."}, "[6]": {"tested_on": "NHDF cells", "experiment": "Time-lapse microscopy, mitotic fate", "assay_type": "cell-based, human", "details": "200 μM", "description": "as §3"}, "[7]": {"tested_on": "MCF-7 cells", "experiment": "Time-lapse microscopy, mitotic fate", "assay_type": "cell-based, human", "details": "MCF-7, 200 μM", "description": "as §3"}, "[8]": {"tested_on": "N1E-115 cells", "experiment": "Immunofluorescence, mitotic spindle morphology", "assay_type": "cell-based, mouse", "details": "2.5 hr, control 30%", "text": "Using IF, we next examined the mitotic phenotypes induced by CW069 in N1E-115 and NHDF cells, with a strong focus on centrosome numbers and mitotic spindle morphology. Antibodies against α-tubulin, CDK5RAP2, and DAPI were employed to visualize MTs, centrosomes, and DNA, respectively. We hypothesized that small-molecule inhibition of HSET would give rise to mitotic spindle defects similar to those reported after HSET knockdown by siRNA transfection ([Kwon et al., 2008]), and this was indeed the case. […] After treatment, the N1E-115 cells formed multipolar spindles due to a lack of centrosome clustering, consistent with HSET inhibition in cells with supernumerary centrosomes (Figure 4C).\n[…] Prewarmed 4% paraformaldehyde in PBS was then added to each well to fix the cells before washing with PBS. Permeabilization and blocking was performed by incubating the slides with 1% BSA, 0.3% Triton X-100, 5% goat serum in PBS (PBS/B/0.3%T+5%GS) for 1 hr while shaking them at room temperature (RT). The slides were incubated with primary antibody solutions (mouse monoclonal anti-α-Tubulin [catalog number T9026; Sigma-Aldrich] and rabbit anti-CDK5RAP2 [catalog number A300-554A; Bethyl Laboratories]) at 4°C for 16 hr. […]"}, "[9]": {"tested_on": "BT549 cells", "experiment": "IncuCyte live-cell imaging, proliferation", "assay_type": "cell-based, human", "details": "BT549, 100-350 μM", "text": "as §4, §5, §6"}, "[10]": {"tested_on": "MCF-7 cells", "experiment": "IncuCyte live-cell imaging, proliferation", "assay_type": "cell-based, human", "details": "MCF-7, 100-350 μM", "text": "as §4, §5, §6"}}}
{"smiles": "O=C(O)c1cc(I)ccc1NC(=O)[C@H](Cc1ccccc1)NCc1ccccc1", "note": "[CW069]", "values": [{"measurement": "multipolar spindles", "setting": "[1]", "value": "small but significant increase in multipolar spindles"}, {"measurement": "multipolar spindles", "setting": "[2]", "value": "increased multipolar spindles"}, {"measurement": "bipolar spindle formation", "setting": "[3]", "value": "did not perturb bipolar spindle formation"}, {"measurement": "fate of daughter cells after aberrant divisions", "setting": "[4]; N1E-115, 200 μM", "value": "the majority of daughter cells underwent apoptosis"}, {"measurement": "multipolar anaphase formation", "setting": "[4]; N1E-115, 200 μM CW069, DMSO control 0% (Figure 5A)", "value": 48, "unit": "%"}, {"measurement": "multipolar anaphases", "setting": "[4]; N1E-115, siRNA plus 200 μM CW069 or DMSO, DMSO/control siRNA 11% (Figure 5D)", "value": 57, "unit": "%"}, {"measurement": "cell proliferation", "setting": "[5]", "value": "reduction in cell proliferation"}, {"measurement": "multipolar anaphase formation", "setting": "[6]", "value": "No similar increase in multipolar anaphase formation"}, {"measurement": "bipolar division", "setting": "[7]", "value": "remained unaffected"}, {"measurement": "multipolar spindle formation", "setting": "[8]; N1E-115, 100 μM", "value": 98, "unit": "%"}, {"measurement": "multipolar spindle formation", "setting": "[8]; N1E-115, 200 μM", "value": 86, "unit": "%"}, {"measurement": "cell proliferation", "setting": "[9]", "value": "antiproliferative effect"}, {"measurement": "cell proliferation", "setting": "[10]", "value": "does reduce their proliferation"}]}
